Where “and” joins values, the source holds several entries; their conditions need not be identical. Equal values may be shown once.

For assay [1], the target named is T1, Mouse AhR (Mus musculus, UniProt P30561).
T1 sequence (P30561 1-848 P471L/N533S/M589L): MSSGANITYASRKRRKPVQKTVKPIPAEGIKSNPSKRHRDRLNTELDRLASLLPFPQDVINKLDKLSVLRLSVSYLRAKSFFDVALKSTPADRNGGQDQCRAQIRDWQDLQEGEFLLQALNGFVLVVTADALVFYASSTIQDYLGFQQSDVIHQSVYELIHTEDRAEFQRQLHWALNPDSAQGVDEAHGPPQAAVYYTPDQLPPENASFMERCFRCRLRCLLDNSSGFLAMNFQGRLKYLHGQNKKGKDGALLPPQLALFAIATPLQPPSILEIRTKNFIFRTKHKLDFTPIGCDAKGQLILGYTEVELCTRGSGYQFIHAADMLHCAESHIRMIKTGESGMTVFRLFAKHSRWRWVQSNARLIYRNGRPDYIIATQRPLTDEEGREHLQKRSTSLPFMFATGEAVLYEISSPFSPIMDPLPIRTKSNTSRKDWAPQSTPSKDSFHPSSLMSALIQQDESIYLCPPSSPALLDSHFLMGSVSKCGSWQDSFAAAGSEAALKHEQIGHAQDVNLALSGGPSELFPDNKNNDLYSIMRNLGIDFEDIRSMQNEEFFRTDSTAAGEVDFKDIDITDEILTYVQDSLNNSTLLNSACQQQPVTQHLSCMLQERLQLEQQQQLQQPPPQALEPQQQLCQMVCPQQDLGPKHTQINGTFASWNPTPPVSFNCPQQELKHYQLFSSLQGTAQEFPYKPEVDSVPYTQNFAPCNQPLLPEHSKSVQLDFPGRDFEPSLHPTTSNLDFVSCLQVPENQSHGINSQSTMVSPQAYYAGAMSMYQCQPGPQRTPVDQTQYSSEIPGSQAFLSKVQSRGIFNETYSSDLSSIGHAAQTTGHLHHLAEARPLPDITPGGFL
Put plainly: Transactivation assay in mouse cell line (in vitro assay 2): antagonism. The assay is classed as cell-based. The following applies: Hepa 1c1c7 cells, AHR inducible firefly luciferase reporter (DRE), 200 μM kynurenic acid, 20 hours. Here is the method: (§1) Examples were tested in selected biological assays one or more times. When tested more than once, data are reported as either average values or as median values, wherein • the average value, also referred to as the arithmetic mean value, represents the sum of the values obtained divided by the number of times tested, and • the median value represents the middle number of the group of values when ranked in ascending or descending order. If the number of values in the data set is odd, the median is the middle value. If the number of values in the data set is even, the median is the arithmetic mean of the two middle values.
Transactivation Assay in Mouse Cell Line (In Vitro Assay 2)
Transactivation assay was carried out in Hepa 1c1c7 cells (ATCC #CRL-2026) endogenously expressing AHR. In addition the cells were stably transfected with an AHR inducible firefly luciferase reporter gene construct that carried AHR-binding sites (DRE) in its promoter. Kynurenic acid is an endogenous AHR activating ligand and was used to prestimulate test cells prior to testing the antagonistic properties of compounds.
In Vitro Assay 2: Antagonism in Mouse Cell Line
Firefly luciferase activity was determined by the SteadyGlo Luciferase Assay System (Promega, #E2550).

In assay [2] the target is T2, Human AhR (Homo sapiens, UniProt P35869).
T2 construct: host or cells: U87 glioblastoma cells, stably transfected with a DRE firefly luciferase reporter and a constitutive renilla reporter
T2 sequence (P35869 11-848): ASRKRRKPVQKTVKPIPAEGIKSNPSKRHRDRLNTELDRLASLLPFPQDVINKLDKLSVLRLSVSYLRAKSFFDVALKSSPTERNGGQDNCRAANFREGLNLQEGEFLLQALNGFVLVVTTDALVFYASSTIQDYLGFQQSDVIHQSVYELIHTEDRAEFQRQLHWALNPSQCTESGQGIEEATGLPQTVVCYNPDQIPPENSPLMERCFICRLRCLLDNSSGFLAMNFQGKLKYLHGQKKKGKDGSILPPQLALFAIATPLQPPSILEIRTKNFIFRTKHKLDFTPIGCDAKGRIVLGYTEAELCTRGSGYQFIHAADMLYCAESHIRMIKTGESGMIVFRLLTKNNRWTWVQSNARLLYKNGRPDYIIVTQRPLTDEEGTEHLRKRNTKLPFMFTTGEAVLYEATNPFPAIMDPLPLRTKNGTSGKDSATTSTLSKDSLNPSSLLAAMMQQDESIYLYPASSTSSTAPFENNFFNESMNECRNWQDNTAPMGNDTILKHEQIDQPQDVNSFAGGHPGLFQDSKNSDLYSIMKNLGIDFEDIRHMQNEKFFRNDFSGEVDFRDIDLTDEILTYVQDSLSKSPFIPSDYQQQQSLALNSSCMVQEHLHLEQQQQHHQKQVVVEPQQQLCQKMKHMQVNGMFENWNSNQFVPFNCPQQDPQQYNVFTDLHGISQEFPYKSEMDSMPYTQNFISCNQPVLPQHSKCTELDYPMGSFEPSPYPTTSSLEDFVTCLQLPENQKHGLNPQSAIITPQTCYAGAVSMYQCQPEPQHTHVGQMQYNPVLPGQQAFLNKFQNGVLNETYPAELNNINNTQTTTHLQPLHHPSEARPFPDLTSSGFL
Put plainly: Transactivation assay in human cell line (in vitro assay 1): antagonism. The assay is classed as cell-based. The settings on record: U87 glioblastoma cells, AHR inducible firefly luciferase reporter (DRE), 150 μM kynurenic acid, 20 hours. Here is the method:
as §1
Transactivation Assay in Human Cell Line (In Vitro Assay 1)
Transactivation assay was carried out in U87 glioblastoma cells (ATCC) endogenously expressing AHR. In addition the cells were stably transfected with an AHR inducible firefly luciferase reporter gene construct that carried AHR-binding sites (DRE) in its promoter and a renilla reporter gene construct with constitutively active promoter. Kynurenic acid is an endogenous AHR activating ligand and was used to prestimulate test cells prior to testing the antagonistic properties of compounds.
In Vitro Assay 1: Antagonism in Human Cell Line
Firefly luciferase and Renilla activity was determined by the DualGlo Luciferase Assay System (Promega, #2920). Renilla activity was used to assess toxic effects of compounds.

Broadly, the IC50 is the concentration that gives 50% inhibition. `C[C@@H](CO)NC(=O)c1cc(-c2cccc(F)c2)nc(-c2ccc(C(F)(F)F)cc2)n1` [Example 9, 6-(3-Fluorophenyl)-N-[(2S)-1-hydroxypropan-2-yl]-2-[4-(trifluoromethyl)phenyl]pyrimidine-4-carboxamide]: the IC50 in assay [1] came out at 8.64 nM; in assay [2], 15.3 nM.
As to `C[C@@H](CO)NC(=O)c1cc(-c2cccc(F)c2)nc(-c2ccc(Cl)cc2)n1` [Example 10, 2-(4-Chlorophenyl)-6-(3-fluorophenyl)-N-[(2S)-1-hydroxypropan-2-yl]pyrimidine-4-carboxamide], the IC50 is 23.8 nM in assay [1] and 35.3 nM in assay [2].
Turning to `C[C@@H](CO)NC(=O)c1cc(-c2cccc(F)c2)nc(-c2ccc(OC(F)(F)F)cc2)n1` [Example 11, 6-(3-Fluorophenyl)-N-[(2S)-1-hydroxypropan-2-yl]-2-[4-(trifluoromethoxy)phenyl]pyrimidine-4-carboxamide], the figures for the IC50 in assay [1] and in assay [2] were 11.5 nM and 41.1 nM, respectively.
On to `C[C@@H](CO)NC(=O)c1cc(-c2ccc(OC(F)(F)F)cc2)nc(-c2ccc(OC(F)(F)F)cc2)n1` [Example 12, N-[(2S)-1-hydroxypropan-2-yl]-2,6-bis[4-(trifluoromethoxy)phenyl]pyrimidine-4-carboxamide], for which the half-inhibitory concentration (IC50) in assay [1] is > 20000 nM and 17900 nM; in assay [2] it was over 20000 nM.
`CC(C)(O)CNC(=O)c1cc(-c2ccc(OC(F)(F)F)cc2)nc(-c2ccc(Cl)cc2)n1` [Example 14, 2-(4-chlorophenyl)-N-(2-hydroxy-2-methylpropyl)-6-[4-(trifluoromethoxy)phenyl]pyrimidine-4-carboxamide]: the half-inhibitory concentration (IC50) in assay [1] was found to be 148 nM; in assay [2], 234 nM.
For the compound `COc1ccc(-c2nc(C(=O)NCC(C)(C)O)cc(-c3ccc(OC(F)(F)F)cc3)n2)cc1` [Example 15, N-(2-hydroxy-2-methylpropyl)-2-(4-methoxyphenyl)-6-[4-(trifluoromethoxy)phenyl]pyrimidine-4-carboxamide], the concentration for half-maximal inhibition (IC50) in assay [1] was over 20000 nM; in assay [2], 390 nM.
`CC(C)(O)CNC(=O)c1cc(-c2ccc(OC(F)(F)F)cc2)nc(-c2cccc(C#N)c2)n1` [Example 20, 2-(3-cyanophenyl)-N-(2-hydroxy-2-methylpropyl)-6-[4-(trifluoromethoxy)phenyl]pyrimidine-4-carboxamide]: the half-inhibitory concentration (IC50) amounted to 125 nM in assay [1] and 11.4 nM in assay [2].
On the same counts, the results for `C[C@@H](CO)NC(=O)c1cc(-c2ccc(OC(F)(F)F)cc2)nc(-c2ccc(F)cc2)n1` [Example 28, 2-(4-fluorophenyl)-N-[(2S)-1-hydroxypropan-2-yl]-6-[4-(trifluoromethoxy)phenyl]pyrimidine-4-carboxamide] are 108 nM and 220 nM.
For the compound `C[C@@H](CO)NC(=O)c1cc(-c2ccc(OC(F)(F)F)cc2)nc(-c2ccc(Cl)cc2)n1` [Example 29, 2-(4-chlorophenyl)-N-[(2S)-1-hydroxypropan-2-yl]-6-[4-(trifluoromethoxy)phenyl]pyrimidine-4-carboxamide], the 50% inhibitory concentration (IC50) in assay [1] was found to be 697 nM; in assay [2] it was 525 nM.
For the compound `Cc1cccc(-c2nc(C(=O)N[C@@H](C)CO)cc(-c3ccc(OC(F)(F)F)cc3)n2)c1` [Example 31, N-[(2S)-1-hydroxypropan-2-yl]-2-(3-methylphenyl)-6-[4-(trifluoromethoxy)phenyl]pyrimidine-4-carboxamide], the 50% inhibitory concentration (IC50) turned out to be 46.9 nM in assay [1] and 26.4 nM in assay [2].
Turning to `Cc1cc(-c2nc(C(=O)N[C@@H](C)CO)cc(-c3ccc(OC(F)(F)F)cc3)n2)ccc1F` [Example 32, 2-(4-fluoro-3-methylphenyl)-N-[(2S)-1-hydroxypropan-2-yl]-6-[4-(trifluoromethoxy)phenyl]pyrimidine-4-carboxamide], the concentration for half-maximal inhibition (IC50) is 384 nM in assay [1] and 167 nM in assay [2].
Turning to `C[C@@H](CO)NC(=O)c1cc(-c2ccc(OC(F)(F)F)cc2)nc(-c2ccc(F)c(Cl)c2)n1` [Example 33, 2-(3-chloro-4-fluorophenyl)-N-[(2S)-1-hydroxypropan-2-yl]-6-[4-(trifluoromethoxy)phenyl]pyrimidine-4-carboxamide], the 50% inhibitory concentration (IC50) stood at 397 nM in assay [1] and 98.4 nM in assay [2].
On the same counts, the results for `C[C@@H](CO)NC(=O)c1cc(-c2ccc(OC(F)(F)F)cc2)nc(-c2cccc(C#N)c2)n1` [Example 36, 2-(3-cyanophenyl)-N-[(2S)-1-hydroxypropan-2-yl]-6-[4-(trifluoromethoxy)phenyl]pyrimidine-4-carboxamide] are 180 nM and 18.4 nM.
Turning to `Cc1cc(F)cc(-c2nc(C(=O)N[C@@H](C)CO)cc(-c3ccc(OC(F)(F)F)cc3)n2)c1` [Example 41, 2-(3-fluoro-5-methylphenyl)-N-[(2S)-1-hydroxypropan-2-yl]-6-[4-(trifluoromethoxy)phenyl]pyrimidine-4-carboxamide], the IC50 in assay [1] stood at 191 nM; in assay [2], 29.5 nM.
On the same counts, the results for `C[C@@H](CO)NC(=O)c1cc(-c2ccc(OC(F)(F)F)cc2)nc(-c2ccc(C(F)F)cc2)n1` [Example 42, 2-[4-(difluoromethyl)phenyl]-N-[(2S)-1-hydroxypropan-2-yl]-6-[4-(trifluoromethoxy)phenyl]pyrimidine-4-carboxamide] are 1100 nM and 1100 nM.
On the same counts, the results for `CC(C)(O)CNC(=O)c1cc(-c2ccc(Cl)cc2)nc(-c2ccc(F)cc2)n1` [Example 45, 6-(4-chlorophenyl)-2-(4-fluorophenyl)-N-(2-hydroxy-2-methylpropyl)pyrimidine-4-carboxamide] are 161 nM and 24.4 nM.
On to `CC(C)(O)CNC(=O)c1cc(-c2ccc(Cl)cc2)nc(-c2cc(Cl)cc(Cl)c2)n1` [Example 51, 6-(4-chlorophenyl)-2-(3,5-dichlorophenyl)-N-(2-hydroxy-2-methylpropyl)pyrimidine-4-carboxamide], for which the results for the IC50 in assay [1] and in assay [2] were 3090 nM and 101 nM, respectively.
On the same counts, the results for `CC(C)(O)CNC(=O)c1cc(-c2ccc(Cl)cc2)nc(-c2ccc(C(F)F)cc2)n1` [Example 61, 6-(4-chlorophenyl)-2-[4-(difluoromethyl)phenyl]-N-(2-hydroxy-2-methylpropyl)pyrimidine-4-carboxamide] are 7120 nM and over 20000 nM.

The record behind these values is patent publication US11524944B2, “2-phenylpyrimidine-4-carboxamides as AHR inhibitors” (Bayer Aktiengesellschaft, priority 2017, dated 2022).
